Measured values reported in paper PMC10079235 (PLOS Neglected Tropical Diseases, 2023).
Like-named read-outs stand apart in the source and are kept apart here.

Columns and labels:
HCT-8/MDR1(PTX) cells = settings: for TC50: MDR1(PTX) cells, after selection by PTX
Description: (§1) Host cell drug tolerance to specified inhibitors was evaluated by 3-(4,5-dimethylthiazol-2-yl)-5-(3-carboxymethoxyphenyl)-2-(4-sulfophenyl)-2H-tetrazolium (MTS) assay. WT and transgenic host cells were seeded in 96-well plates (10,000 cells/well) and cultured for 24 h, followed by the addition of specified compounds at serially diluted concentrations and continued culture for 41 h. After 3 washes with serum-free medium, MTS solution (Saint-Bio, Shanghai, China) was added into the plates (20 μL/well) and incubated at 37°C for 2 h. Optical density at 490 nm (OD490) was measured using a Synergy LX multi-mode reader (BioTek, Winooski, VT). Drug tolerance was indicated by half-maximal cytotoxic concentrations (TC50 values) calculated by nonlinear regression using 4PL model. Selectivity index (SI) for each compound was determined by the ratio between TC50 and EC50 values (SI = TC50/EC50).
(§2) Surviving cells were allowed to recover in drug-free medium for 3–5 d to near confluence (round 1). The selection/recovery cycle were repeated once (round 2). […] The resulting cell lines after PTX or NTZ selection were designated as WT(PTX), NC(PTX) and MDR1(PTX), or WT(NTZ), NC(NTZ) and MDR1(NTZ), respectively (Tables 1 and S2).

Cryptosporidium parvum = experiment: Anti-cryptosporidial efficacy assay (44-h infection/qRT-PCR); settings: for EC50: Cryptosporidium parvum; for On-target rate at EC50 / On-target (Eon) rate at EC50: Eq 2; for Action on parasite target (on-target) conclusion: MDR1-transgenic host cell model; for Eoff, proportion of off-parasite-target effect / Eon, proportion of on-parasite-target effect: Eq 3 and 4
HCT-8/NC(NTZ) cells = experiment: MTS cytotoxicity (drug tolerance) assay; settings: NC(NTZ) cells, after selection by NTZ
Description: as §1
(§3) Surviving cells were allowed to recover in drug-free medium for 3–5 d to near confluence (round 1). The selection/recovery cycle were repeated once (round 2). […] Finally, all cells were cultured at the final selection concentrations of PTX or NTZ for ≥7 d, followed by culture in drug-free medium for 14 d. At this time point, cells were used for cytotoxicity and efficacy assays or cryopreserved in a liquid nitrogen tank. The resulting cell lines after PTX or NTZ selection were designated as WT(PTX), NC(PTX) and MDR1(PTX), or WT(NTZ), NC(NTZ) and MDR1(NTZ), respectively (Tables 1 and S2).

HCT-8/WT(NTZ) cells = experiment: MTS cytotoxicity (drug tolerance) assay; settings: WT(NTZ) cells, after selection by NTZ
Description: as §1, §3

HCT-8/NC cells = experiment: MTS cytotoxicity (drug tolerance) assay; settings: no drug selection
HCT-8/NC(PTX) cells = experiment: MTS cytotoxicity (drug tolerance) assay; settings: NC(PTX) cells, after selection by PTX
Description: as §1, §2

HCT-8/WT(PTX) cells = experiment: MTS cytotoxicity (drug tolerance) assay; settings: WT(PTX) cells, after selection by PTX
Description: as §1, §2

HCT-8/MDR1(NTZ) cells = experiment: MTS cytotoxicity (drug tolerance) assay; settings: for TC50: human, 41 h
Description: as §1, §2

HCT-8/MDR1 cells = settings: human, 41 h
HCT-8/WT cells = experiment: MTS cytotoxicity (drug tolerance) assay; settings: for TC50: WT cells, no drug selection, MTS assay
Description: as §1

[1] = MDR1, read-out: Antiparasitic efficacy (EC50), C. parvum cultured in MDR1(PTX) host cells
[2] = read-out: Antiparasitic efficacy (EC50), C. parvum cultured in NC host cells
[3] = read-out: Antiparasitic efficacy (EC50), C. parvum cultured in WT host cells
[4] = at EC10, MDR1(NTZ) vs. NC model
[5] = at EC20, MDR1(NTZ) vs. NC model
[6] = at EC30, MDR1(NTZ) vs. NC model
[7] = at EC40, MDR1(NTZ) vs. NC model
[8] = at EC50, MDR1(NTZ) vs. NC model
[9] = at EC60, MDR1(NTZ) vs. NC model
[10] = at EC70, MDR1(NTZ) vs. NC model
[11] = at EC80, MDR1(NTZ) vs. NC model
[12] = at EC90, MDR1(NTZ) vs. NC model
[13] = at EC10, MDR1(PTX) vs. NC model
[14] = at EC20, MDR1(PTX) vs. NC model
[15] = at EC30, MDR1(PTX) vs. NC model
[16] = at EC40, MDR1(PTX) vs. NC model
[17] = at EC50, MDR1(PTX) vs. NC model
[18] = at EC60, MDR1(PTX) vs. NC model
[19] = at EC70, MDR1(PTX) vs. NC model
[20] = at EC80, MDR1(PTX) vs. NC model
[21] = at EC90, MDR1(PTX) vs. NC model

SMILES: CC(=O)Oc1ccccc1C(=O)Nc1ncc([N+](=O)[O-])s1 [Nitazoxanide]
- TC50 (HCT-8/MDR1(PTX) cells): 25.59 µM
- EC50 (Cryptosporidium parvum; MDR1, read-out: Antiparasitic efficacy (EC50), C. parvum cultured in MDR1(NTZ) host cells): 1.07 µM
- EC50 (Cryptosporidium parvum; [1]): 1.06 µM
- EC50 (Cryptosporidium parvum; [2]): 1.11 µM
- EC50 (Cryptosporidium parvum; [3]): 1.09 µM
- Off-target rate at EC50 (Cryptosporidium parvum; MDR1(NTZ) cell model, Eq 1): -3.6%
- On-target rate at EC50 (Cryptosporidium parvum; MDR1(NTZ) cell model): 103.6%
- On-target rate at EC50 (Cryptosporidium parvum; MDR1(NTZ) cell model, listed as NTZ): 103.6%
- Action on parasite target (on-target) conclusion (Cryptosporidium parvum): 100% on-target
- Eoff, proportion of off-parasite-target effect (Cryptosporidium parvum; [4]): -7.90%
- Eon, proportion of on-parasite-target effect (Cryptosporidium parvum; [4]): 107.90%
- Eoff, proportion of off-parasite-target effect (Cryptosporidium parvum; [5]): -6.10%
- Eon, proportion of on-parasite-target effect (Cryptosporidium parvum; [5]): 106.10%
- Eoff, proportion of off-parasite-target effect (Cryptosporidium parvum; [6]): -5.10%
- Eon, proportion of on-parasite-target effect (Cryptosporidium parvum; [6]): 105.10%
- Eoff, proportion of off-parasite-target effect (Cryptosporidium parvum; [7]): -4.30%
- Eon, proportion of on-parasite-target effect (Cryptosporidium parvum; [7]): 104.30%
- Eoff, proportion of off-parasite-target effect (Cryptosporidium parvum; [8]): −3.6%
- Eon, proportion of on-parasite-target effect (Cryptosporidium parvum; [8]): 103.6%
- Eoff, proportion of off-parasite-target effect (Cryptosporidium parvum; [9]): -2.90%
- Eon, proportion of on-parasite-target effect (Cryptosporidium parvum; [9]): 102.90%
- Eoff, proportion of off-parasite-target effect (Cryptosporidium parvum; [10]): -2.30%
- Eon, proportion of on-parasite-target effect (Cryptosporidium parvum; [10]): 102.30%
- Eoff, proportion of off-parasite-target effect (Cryptosporidium parvum; [11]): -1.50%
- Eon, proportion of on-parasite-target effect (Cryptosporidium parvum; [11]): 101.50%
- Eoff, proportion of off-parasite-target effect (Cryptosporidium parvum; [12]): -0.50%
- Eon, proportion of on-parasite-target effect (Cryptosporidium parvum; [12]): 100.50%
- TC50 (HCT-8/NC(NTZ) cells): 39.09 µM
- TC50 (HCT-8/WT(NTZ) cells): 38.70 µM
- TC50 (HCT-8/NC cells): 25.90 µM
- TC50 (HCT-8/NC(PTX) cells): 26.76 µM
- TC50 (HCT-8/WT(PTX) cells): 25.37 µM
- Pct change of TC50 (vs NC) (HCT-8/MDR1(NTZ) cells; MDR1(NTZ) vs NC cells): 101.5%
- TC50 (HCT-8/MDR1(NTZ) cells): 52.19 µM
- TC50 (HCT-8/MDR1 cells): 25.28 µM
- TC50 (HCT-8/WT cells): 26.75 µM
- Calculated cytotoxicity at EC50 (HCT-8/WT cells; percent inhibition of WT host cell growth at the EC50 concentration, calculated with Eq 5 from k and h): 2.73%

SMILES: CC[C@]1(O)C[C@H]2CN(CCc3c([nH]c4ccccc34)[C@@](C(=O)OC)(c3cc4c(cc3OC)N(C=O)[C@H]3[C@@](O)(C(=O)OC)[C@H](OC(C)=O)[C@]5(CC)C=CCN6CC[C@]43[C@@H]65)C2)C1 [Vincristine, Vincristine sulphate]
- TC50 (HCT-8/MDR1(PTX) cells): 21.51 µM
- Pct change of TC50 (vs NC) (HCT-8/MDR1(PTX) cells; MDR1(PTX) vs NC cells): 200.8%
- EC50 (Cryptosporidium parvum; [1]): 2.77 µM
- EC50 (Cryptosporidium parvum; [2]): 1.58 µM
- EC50 (Cryptosporidium parvum; [3]): 1.64 µM
- On-target (Eon) rate at EC50 (Cryptosporidium parvum; MDR1(PTX) cell model): 62.5%
- On-target (Eon) rate at EC50 (Cryptosporidium parvum; MDR1(PTX) cell model, listed as VCT): 62.5%
- Off-target (Eoff) rate at EC50 (Cryptosporidium parvum; MDR1(PTX) cell model, from Pct changes of EC50 and TC50 (Eq 1)): 37.5%
- Action on parasite target (on-target) conclusion (Cryptosporidium parvum): partially on-target
- Eoff, proportion of off-parasite-target effect (Cryptosporidium parvum; [13]): 38.10%
- Eon, proportion of on-parasite-target effect (Cryptosporidium parvum; [13]): 61.90%
- Eon, proportion of on-parasite-target effect (Cryptosporidium parvum; at EC10, MDR1(PTX) vs. NC model, listed as VCT): 61.9%
- Eoff, proportion of off-parasite-target effect (Cryptosporidium parvum; [14]): 38.00%
- Eon, proportion of on-parasite-target effect (Cryptosporidium parvum; [14]): 62.00%
- Eoff, proportion of off-parasite-target effect (Cryptosporidium parvum; [15]): 37.90%
- Eon, proportion of on-parasite-target effect (Cryptosporidium parvum; [15]): 62.10%
- Eoff, proportion of off-parasite-target effect (Cryptosporidium parvum; [16]): 37.80%
- Eon, proportion of on-parasite-target effect (Cryptosporidium parvum; [16]): 62.20%
- Eoff, proportion of off-parasite-target effect (Cryptosporidium parvum; [17]): 37.7%
- Eon, proportion of on-parasite-target effect (Cryptosporidium parvum; [17]): 62.3%
- Eoff, proportion of off-parasite-target effect (Cryptosporidium parvum; [18]): 37.60%
- Eon, proportion of on-parasite-target effect (Cryptosporidium parvum; [18]): 62.40%
- Eoff, proportion of off-parasite-target effect (Cryptosporidium parvum; [19]): 37.50%
- Eon, proportion of on-parasite-target effect (Cryptosporidium parvum; [19]): 62.50%
- Eoff, proportion of off-parasite-target effect (Cryptosporidium parvum; [20]): 37.30%
- Eon, proportion of on-parasite-target effect (Cryptosporidium parvum; [20]): 62.70%
- Eoff, proportion of off-parasite-target effect (Cryptosporidium parvum; [21]): 37.10%
- Eon, proportion of on-parasite-target effect (Cryptosporidium parvum; [21]): 62.90%
- Eon, proportion of on-parasite-target effect (Cryptosporidium parvum; at EC90, MDR1(PTX) vs. NC model, listed as VCT): 62.9%
- TC50 (HCT-8/NC(NTZ) cells): 6.87 µM
- TC50 (HCT-8/WT(NTZ) cells): 7.04 µM
- TC50 (HCT-8/NC cells): 7.15 µM
- TC50 (HCT-8/NC(PTX) cells): 7.29 µM
- TC50 (HCT-8/WT(PTX) cells): 6.96 µM
- TC50 (HCT-8/MDR1(NTZ) cells): 12.38 µM
- TC50 (HCT-8/MDR1 cells): 12.61 µM
- TC50 (HCT-8/WT cells): 6.72 µM
